In US20100035926A1, “PYRAZOLE DERIVATIVES AS NON-STEROIDAL GLUCOCORTICOID RECEPTOR LIGANDS” (priority 2006, published 2010):
Where two headings read alike, the source gives them in different places.

How the values were obtained:
glucocorticoid receptor = molecular target: T1, glucocorticoid receptor (Homo sapiens, UniProt P04150); experiment: Glucocorticoid Receptor Binding Assay (fluorescence polarisation, displacement of Alexa 555 labelled dexamethasone derivative); conditions: at least once in this assay; read-out: glucocorticoid binding pIC50 (converted)
T1 construct: a partially purified full length glucocorticoid receptor
T1 sequence (P04150 1-777): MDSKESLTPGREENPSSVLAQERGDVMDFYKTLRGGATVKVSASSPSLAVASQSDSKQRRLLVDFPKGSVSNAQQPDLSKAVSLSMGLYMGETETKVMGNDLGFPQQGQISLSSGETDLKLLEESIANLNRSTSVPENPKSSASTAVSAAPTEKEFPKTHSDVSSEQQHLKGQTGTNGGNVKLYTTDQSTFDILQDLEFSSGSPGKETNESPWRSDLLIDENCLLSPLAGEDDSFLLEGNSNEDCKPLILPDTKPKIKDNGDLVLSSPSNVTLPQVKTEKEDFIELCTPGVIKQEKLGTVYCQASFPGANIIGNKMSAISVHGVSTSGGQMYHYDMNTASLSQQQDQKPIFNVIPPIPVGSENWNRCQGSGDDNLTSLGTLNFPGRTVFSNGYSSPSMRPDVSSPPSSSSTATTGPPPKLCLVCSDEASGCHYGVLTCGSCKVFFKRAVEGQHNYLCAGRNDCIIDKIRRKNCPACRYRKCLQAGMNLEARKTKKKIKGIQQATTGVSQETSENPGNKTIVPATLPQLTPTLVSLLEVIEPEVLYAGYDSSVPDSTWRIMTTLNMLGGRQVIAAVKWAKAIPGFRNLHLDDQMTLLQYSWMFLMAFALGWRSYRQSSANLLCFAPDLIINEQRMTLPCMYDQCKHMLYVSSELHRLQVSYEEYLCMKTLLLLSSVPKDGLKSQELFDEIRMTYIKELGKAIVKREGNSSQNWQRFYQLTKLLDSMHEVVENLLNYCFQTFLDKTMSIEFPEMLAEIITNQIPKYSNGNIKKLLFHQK
Experimental: Compounds were solvated and diluted in DMSO, and transferred directly into assay plates. Fluorescent dexamethasone and a partially purified full length glucocorticoid receptor were added to the plates, together with buffer components to stabilise the GR protein and incubated at room temperature for 2 hr in the dark. Binding of each compound was assessed by analysing the displacement of fluorescent ligand by measuring the decrease in fluorescence polarisation signal from the mixture.

GR [1] = molecular target: T2, GR (Homo sapiens, UniProt P04150); experiment: GR Functional Assay - NFκB Assay (A549 SPAP cells, TNFα stimulated); type: cell-based; conditions: for Emax: agonists, read-out: average maximum asymptote in the NFkB assay
T2 construct: endogenous in cells; host or cells: A549 (human lung carcinoma, ECACC No. 86012804), stably transfected with reporter plasmids only
T2 sequence (P04150 1-777): T1 sequence (P04150 1-777)
Experimental: Stimulation of the cell line with TNFα results in intracellular signal transduction and ultimately translocation of NFκB into the nucleus. This activates the inserted DNA sequence resulting in transcription of the integrated SPAP gene, which is quantified using a calorimetric assay. […] The stably transfected cell line was grown as a monolayer in DMEM supplemented with FCS-HI (10%), Non-essential amino acids (1%), L-Glutamine (2 mM), Pen/Strep (1%) and Geneticin (50 mg/ml).
A 70% confluent T225 flask of A549 SPAP cells was harvested by centrifugation for 5 mins at 200 g, resuspended in assay buffer (DMEM supplemented with 10% FCS 2×HI, 2 mM L-Glutamine, 1% Pen/Strep and Non essential amino acids) and diluted to 0.16×10^6/ml. 60 μl of cell solution was dispensed to each well of clear Nunc 384-well plates, containing compound at the required concentration. […] Plates were equilibrated to room temperature for 1 hr prior to the addition of 25 μl of pNPP buffer (1M Diethanolamine pH 9.8, 0.5 mM MgCl2, 0.28M NaCl, 2 mg/ml pNPP) to each well of assay plates.

GR [2] = molecular target: T2, GR; experiment: GR Agonist Assay - MMTV Assay (A549 MMTV cells, renilla luciferase reporter); type: cell-based; conditions: 6 h, agonists, read-out: average maximum asymptote in the MMTV agonist assay
Experimental: Stimulation of the cell line with GR agonists results in intracellular signal transduction and ultimately translocation of GR into the nucleus. This activates the inserted DNA sequence resulting in transcription of the integrated luciferase gene, which is quantified using a light emission. The stably transfected cell line was grown as a monolayer in DMEM supplemented with FCS-HI (10%), Non-essential amino acids (1%), L-Glutamine (2 mM), Pen/Strep (1%) and Geneticin (50 mg/ml).
A 90% confluent T175 flask of A549 MMTV cells was harvested by centrifugation for 5 min at 200 g, resuspended in assay buffer (DMEM supplemented with 10% FCS 2×HI, 2 mM Glutamax, Non essential amino acids and 25 mM HEPES) and diluted to 0.1×10^6/ml. 70 μl of cell solution was dispensed to each well of white Nunc 384-well plates, containing compound at the required concentration. […] The plates were covered to protect the reagents from light, and then incubated at room temperature for approximately 15 mins before reading them on a Viewlux.

[3] = at least once in the NFkB assay, A549 SPAP cells, read-out: pIC50 in the NFkB assay (converted)
[4] = at least once, examples listed as agonists in NFkB and MMTV assays, read-out: potency pIC50 in the NFKB assay (converted)

IC50 (glucocorticoid receptor) | Emax (GR [1]; A549 SPAP cells) | IC50 (GR [1]; [3]) | IC50 (GR [1]; [4]) | Emax (GR [2]) | SMILES
< 1000 nM | ≥ 40% | < 1000 nM | < 316 nM | ≥ 40% | CC(=O)c1ccccc1C(=O)N(C)CC(O)(CNC(=O)c1cnn(-c2ccc(F)cc2)c1N)C(F)(F)F (racemic) [Example 27 (racemic), N-(2-{[[(2-acetylphenyl)car-bonyl](methyl)amino]methyl}-3,3,3-trifluoro-2-hydroxypropyl)-5-amino-1-(4-fluorophenyl)-1H-pyrazole-4-carboxamide]
< 1000 nM | ≥ 40% | < 1000 nM | < 316 nM | ≥ 40% | CCN(CC(O)(CNC(=O)c1cnn(-c2ccc(F)cc2)c1N)C(F)(F)F)C(=O)c1cccc(C(F)(F)F)c1 (racemic) [Example 20 (racemic), 5-amino-N-{2-[(ethyl{[3-(trifluoromethyl)phenyl]carbonyl}amino)methyl]-3,3,3-trifluoro-2-hydroxypropyl}-1-(4-fluorophenyl)-1H-pyrazole-4-carboxamide]
< 1000 nM | ≥ 40% | – | < 316 nM | ≥ 40% | CCN(CC(O)(CNC(=O)c1cnn(-c2cccc(Cl)c2)c1N)C(F)(F)F)C(=O)c1ccccc1 (racemic) [Example 37 (racemic), 5-amino-1-(3-chlorophenyl)-N-(2-{[ethyl(phenylcar-bonyl)amino]methyl}-3,3,3-trifluoro-2-hydroxypropyl)-1H-pyrazole-4-carboxamide]
< 1000 nM | ≥ 40% | < 1000 nM | < 316 nM | ≥ 40% | CCN(CC(O)(CNC(=O)c1cnn(-c2ccc(F)cc2)c1N)C(F)(F)F)C(=O)c1cccc(F)c1Cl (racemic) [Example 18 (racemic), 5-amino-N-(2-{[[(2-chloro-3-fluorophenyl)car-bonyl](ethyl)amino]methyl}-3,3,3-trifluoro-2-hydroxypropyl)-1-(4-fluorophenyl)-1H-pyrazole-4-carboxamide]
< 1000 nM | ≥ 40% | – | < 316 nM | ≥ 40% | CCN(CC(O)(CNC(=O)c1cnn(-c2ccc(F)cc2)c1N)C(F)(F)F)C(=O)c1ncccc1F (racemic) [Example 38 (racemic), N-{2-[({[5-amino-1-(4-fluorophenyl)-1H-pyrazol-4-yl]carbonyl}amino)methyl]-3,3,3-trifluoro-2-hydroxypropyl}-N-ethyl-3-fluoro-2-pyridinecarboxamide]
< 1000 nM | ≥ 40% | – | < 316 nM | ≥ 40% | CCN(CC(O)(CNC(=O)c1cnn(-c2ccc(F)cc2)c1N)C(F)(F)F)C(=O)c1ccccc1OC(F)F (racemic) [Example 12 (racemic), 5-amino-N-(2-{[({2-[(difluoromethyl)oxy]phenyl}carbonyl) (ethyl)amino]methyl}-3,3,3-trifluoro-2-hydroxypropyl)-1-(4-fluorophenyl)-1H-pyrazole-4-carboxamide]
< 1000 nM | ≥ 40% | < 1000 nM | < 316 nM | ≥ 40% | CCN(CC(O)(CNC(=O)c1cnn(-c2ccc(F)cc2)c1N)C(F)(F)F)C(=O)c1cccc(Cl)c1 (racemic) [Example 17 (racemic), 5-amino-N-(2-{[[(3-chlorophenyl)car-bonyl](ethyl)amino]methyl}-3,3,3-trifluoro-2-hydroxypropyl)-1-(4-fluorophenyl)-1H-pyrazole-4-carboxamide]
< 1000 nM | ≥ 40% | < 1000 nM | < 316 nM | ≥ 40% | CCN(CC(O)(CNC(=O)c1cnn(-c2ccc(F)cc2)c1N)C(F)(F)F)C(=O)c1ccc(F)cc1Cl (racemic) [Example 23 (racemic), 5-amino-N-(2-{[[(2-chloro-4-fluorophenyl)car-bonyl](ethyl)amino]methyl}-3,3,3-trifluoro-2-hydroxypropyl)-1-(4-fluorophenyl)-1H-pyrazole-4-carboxamide]
< 1000 nM | ≥ 40% | – | < 316 nM | ≥ 40% | Nc1c(C(=O)NCC(O)(CN(CCF)C(=O)c2ncccc2F)C(F)(F)F)cnn1-c1ccc(F)cc1 (racemic) [Example 40 (racemic), N-{2-[({[5-amino-1-(4-fluorophenyl)-1H-pyrazol-4-yl]carbonyl}amino)methyl]-3,3,3-trifluoro-2-hydroxypropyl}-3-fluoro-N-(2-fluoroethyl)-2-pyridinecarboxamide]
< 1000 nM | ≥ 40% | – | < 316 nM | ≥ 40% | CCN(CC(O)(CNC(=O)c1cnn(-c2cc(F)cc(F)c2)c1N)C(F)(F)F)C(=O)c1ccccc1 (racemic) [Example 33 (racemic), 5-amino-1-(3,5-difluorophenyl)-N-(2-{[ethyl(phenylcarbonyl)amino]methyl}-3,3,3-trifluoro-2-hydroxypropyl)-1H-pyrazole-4-carboxamide]
< 1000 nM | ≥ 40% | – | < 316 nM | ≥ 40% | Nc1c(C(=O)NCC(O)(CN(CCF)C(=O)c2ccccc2C(F)(F)F)C(F)(F)F)cnn1-c1ccc(F)cc1 (racemic) [Example 10 (racemic), 5-amino-1-(4-fluorophenyl)-N-{3,3,3-trifluoro-2-[((2-fluoroethyl){[2-(trifluoromethyl)phenyl]carbonyl}amino)methyl]-2-hydroxypropyl}-1H-pyrazole-4-carboxamide]
< 1000 nM | ≥ 40% | – | < 316 nM | ≥ 40% | CCN(CC(O)(CNC(=O)c1cnn(-c2ccccc2)c1N)C(F)(F)F)C(=O)c1ccccc1 (racemic) [Example 43 (racemic), 5-amino-N-(2-{[ethyl(phenylcar-bonyl)amino]methyl}-3,3,3-trifluoro-2-hydroxypropyl)-1-phenyl-1H-pyrazole-4-carboxamide]
< 1000 nM | ≥ 40% | – | < 316 nM | ≥ 40% | CCN(CC(O)(CNC(=O)c1cnn(-c2ccc(F)cc2)c1N)C(F)(F)F)C(=O)c1ccccc1F (single isomer, unassigned) [Example 4 Enantiomer 2, 5-Amino-N-[2-({ethyl[(2-fluorophenyl)carbonyl]amino}methyl)-3,3,3-trifluoro-2-hydroxypropyl]-1-(4-fluorophenyl)-1H-pyrazole-4-carboxamide]
